Measurements published in patent US11680056B2, “MK2 inhibitors and uses thereof” (Xinthera, Inc., priority 2021, dated 2023).
Read-outs that look alike come from different tables or passages of the source.

Legend:
p38a/MK2 = p38a/MK2 (Homo sapiens (Human), UniProt P49137+Q16539); assay: p38a/MK2 biochemical assay: activation of MK2 by p38, FITC-HSP27 peptide phosphorylation (IMAP FP); settings: 10-point 1:3 dilution, 60 pM active p38a, 1 nM inactive MK2, 10 μM ATP, 2 h incubation
Procedure: (§1) Expression vectors of the recombinant MK2 and PRAK kinases were constructed by cloning of the codon optimized gene sequences of MK2 (Uniprot ID P49137, amino acid fragment F46-H400), or PRAK (Uniprot ID Q81W41, amino acid fragment M1-Q471) into pGEX-4T1 (GE) for over expression of these kinases with N-terminal GST-tag. Protein expression was carried out in E. coli BL21 by growing the hosts in TB medium, induction of protein expression with 0.5 mM IPTG at approximate 0.8 OD600, and incubation of the cultures at 18° C. for 14-20 hours afterwards. The harvested cells were resuspended in […] of Lysis buffer (50 mM Tris-HCl, pH 8.0, 500 mM NaCl, 1 mM DTT, 5% glycerol, and 1 mM PMSF) per gram of wet cell mass and homogenized at 4° C. in a microfluidizer (ATS, Suzhou, China) at 14,000 psi pressure, 3 passes. The cell lysates were clarified by centrifugation and the supernatants containing the GST-fusion proteins were purified by affinity chromatography using GSH-Sepharose (GE) gravity flow columns pre-equilibrated in Buffer A (50 mM Tris-HCl, pH 8.0, 500 mM NaCl, 1 mM DTT, and 5% glycerol). After thorough washing of the columns with Buffer A, the bound GST-proteins were eluted by Buffer B (50 mM Tris, pH 8.0, 500 mM NaCl, 1 mM DTT, 5% glycerol, 10 mM glutathione), followed by size-exclusion purification on Superdex 200 column equilibrated in Buffer A. The purified proteins were concentrated to approximately 1 mg/ml and stored at −80° C.
This study evaluates the inhibitory potency of invention compound on p38/MK2 pathway vs p38/PRAK pathway. More specially the compound concentration (IC50) was determined that inhibited half of the maximal activation of MK2 or PRAK by p38. MK2 activation study was set up without or with a serial of 10-point 1:[…], and PRAK activation study was set up without or with a serial of 10-point 1:3 dilution of invention compound at top dose of 300 μM. The MK2 and PRAK activity were determined by the phosphorylation level of HSP27 peptide conjugated with FITC.
(§2) After 2 h incubation of the reaction mixture with various concentration of invention compound (200 nL), 60 μL 1×IMAP solution Mixture (Molecular Devices, Cat R8127) was added to the reaction mixture and incubated for another half hour. The signal was then read by Synergy™ Neo2 Multi-Mode Microplate Reader with filter setting (Ex/Em=485 nm/FITC FP-P pol 528 nm & FITC FP-S pol 528 nm)
(§3) The signal was then normalized to vehicle control and fitted in Xfit to generate IC50. The selectivity of MK2 over PRAK was calculated by the formular Selectivity=IC50 of PRAK/IC50 of MK2.

p38a/PRAK = p38a/PRAK (Homo sapiens (Human), UniProt Q16539); assay: p38a/PRAK biochemical assay: activation of PRAK by p38, FITC-HSP27 peptide phosphorylation (IMAP FP); settings: 10-point 1:3 dilution, top dose 300 μM, 60 pM active p38a, 1 nM inactive PRAK, 10 μM ATP, 2 h incubation; for IC50: read-out: p38a/PRAK Enzyme pIC50 (converted)
Procedure: as §1
This study evaluates the inhibitory potency of invention compound on p38/MK2 pathway vs p38/PRAK pathway. More specially the compound concentration (IC50) was determined that inhibited half of the maximal activation of MK2 or PRAK by p38. MK2 activation study was set up without or with a serial of 10-point 1:3 dilution of invention compound at top dose of […], and PRAK activation study was set up without or with a serial of 10-point 1:3 dilution of invention compound at top dose of 300 μM. The MK2 and PRAK activity were determined by the phosphorylation level of HSP27 peptide conjugated with FITC.
as §2, §3

[1] = top dose 1 μM, read-out: p38a/MK2 (1 μM) Enzyme pIC50 (converted)
[2] = top dose 10 μM, read-out: p38a/MK2 (10 μM) Enzyme pIC50 (converted)

p38a/PRAK, sequence (Q16539 whole entry): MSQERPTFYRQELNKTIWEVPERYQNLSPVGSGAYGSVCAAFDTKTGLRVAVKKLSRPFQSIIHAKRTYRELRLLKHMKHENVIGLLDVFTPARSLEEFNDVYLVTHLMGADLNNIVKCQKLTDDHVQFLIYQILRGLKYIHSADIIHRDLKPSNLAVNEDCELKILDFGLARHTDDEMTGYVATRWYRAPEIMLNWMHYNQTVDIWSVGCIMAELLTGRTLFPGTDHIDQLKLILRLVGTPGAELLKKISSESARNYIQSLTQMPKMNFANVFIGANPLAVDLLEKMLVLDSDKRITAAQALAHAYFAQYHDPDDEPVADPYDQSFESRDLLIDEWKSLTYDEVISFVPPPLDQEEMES
p38a/MK2, sequence (P49137 46-400): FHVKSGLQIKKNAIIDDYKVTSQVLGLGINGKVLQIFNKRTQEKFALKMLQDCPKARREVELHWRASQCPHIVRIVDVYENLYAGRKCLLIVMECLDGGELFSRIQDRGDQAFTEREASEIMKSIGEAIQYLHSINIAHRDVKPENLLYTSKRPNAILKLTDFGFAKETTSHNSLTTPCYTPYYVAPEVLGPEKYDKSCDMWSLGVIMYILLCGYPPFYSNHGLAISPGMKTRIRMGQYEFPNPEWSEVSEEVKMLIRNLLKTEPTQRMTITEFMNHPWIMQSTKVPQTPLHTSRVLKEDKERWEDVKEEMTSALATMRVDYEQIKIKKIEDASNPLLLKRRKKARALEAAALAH
p38a/MK2, sequence (Q16539 whole entry, the tested form may be a part): as the sequence (Q16539 whole entry) above

| SMILES | IC50 (p38a/MK2; [1]) [µM] | IC50 (p38a/PRAK) [µM] | p38a/MK2 (10 μM) Enzyme pIC50 (p38a/MK2; top dose 10 μM) | IC50 (p38a/MK2; [2]) [µM] | p38a/PRAK Enzyme pIC50 (p38a/PRAK) |
| --- | --- | --- | --- | --- | --- |
| Cc1cnc(-c2ccnc(C(C)(C)O)c2F)cc1-n1c(C)cc(OCc2ncc(F)cc2F)c(Cl)c1=O (atropisomer, axis not shown) [Example 56B, 3-chloro-4-[(3,5-difluoropyridin-2-yl)methoxy]-1-[3′-fluoro-2′-(2-hydroxypropan-2-yl)-5-methyl-[2,4′-bipyridin]-4-yl]-6-methylpyridin-2-one] | > 1 | > 316 |  |  |  |
| Cc1cnc(-c2ccnc([C@@](C)(O)C3CC3)n2)cc1-n1c(C)cc(OCc2ncc(F)cc2F)c(Cl)c1=O (racemic) [Example 6, 3-chloro-2′-[2-(1-cyclopropyl-1-hydroxyethyl)pyrimidin-4-yl]-4-[(3,5-difluoropyridin-2-yl)methoxy]-5′,6-dimethyl-[1,4′-bipyridin]-2-one] |  | 12.6 | 7.5 |  |  |
| COCC(C)(O)c1nccc(-c2cc(-n3c(C)cc(OCc4ncc(F)cc4F)c(Cl)c3=O)c(C)cn2)n1 (racemic) [Example 55, 3-chloro-4-[(3,5-difluoropyridin-2-yl)methoxy]-2′-[2-(2-hydroxy-1-methoxypropan-2-yl)pyrimidin-4-yl]-5′,6-dimethyl-[1,4′-bipyridin]-2-one] | 0.0631 | 10 |  |  |  |
| Cc1cnc(-c2ccnc(C3(O)CC3)n2)cc1-n1c(C)cc(OCc2ncc(F)cc2F)c(Cl)c1=O (single isomer, unassigned) [Example 3A, rel-3-chloro-4-[(3,5-difluoropyridin-2-yl)methoxy]-2′-[2-(1-hydroxycyclopropyl)pyrimidin-4-yl]-5′,6-dimethyl-[1,4′-bipyridin]-2-one] | 0.01 | 3.98 |  |  |  |
| Cc1cnc(-c2ccnc(C3(O)CC3)n2)cc1-n1c(C)cc(OCc2ncc(F)cc2F)c(Cl)c1=O (single isomer, unassigned) [Example 3B, rel-3-chloro-4-[(3,5-difluoropyridin-2-yl)methoxy]-2′-[2-(1-hydroxycyclopropyl)pyrimidin-4-yl]-5′,6-dimethyl-[1,4′-bipyridin]-2-one] |  | > 316 |  | > 10 |  |
| Cc1cnc(-c2ccnc(C(C)(C)CO)n2)cc1-n1c(C)cc(OCc2ncc(F)cc2F)c(Cl)c1=O (single isomer, unassigned) [Example 4A, rel-3-chloro-4-[(3,5-difluoropyridin-2-yl)methoxy]-2′-[2-(1-hydroxy-2-methylpropan-2-yl)pyrimidin-4-yl]-5′,6-dimethyl-[1,4′-bipyridin]-2-one] | 0.00158 | 3.98 |  |  |  |
| Cc1cnc(-c2ccnc(C(C)(C)CO)n2)cc1-n1c(C)cc(OCc2ncc(F)cc2F)c(Cl)c1=O (single isomer, unassigned) [Example 4B, rel-3-chloro-4-[(3,5-difluoropyridin-2-yl)methoxy]-2′-[2-(1-hydroxy-2-methylpropan-2-yl)pyrimidin-4-yl]-5′,6-dimethyl-[1,4′-bipyridin]-2-one] |  | > 316 |  | 0.794 |  |
| Cc1cnc(-c2ccnc(C(C)(C)C(F)F)n2)cc1-n1c(C)cc(OCc2ncc(F)cc2F)c(Cl)c1=O (single isomer, unassigned) [Example 5A, rel-3-chloro-2′-[2-(1,1-difluoro-2-methylpropan-2-yl)pyrimidin-4-yl]-4-[(3,5-difluoropyridin-2-yl)methoxy]-5′,6-dimethyl-[1,4′-bipyridin]-2-one] |  | 2.51 |  | 0.00631 |  |
| Cc1cnc(-c2ccnc(C(C)(C)C(F)F)n2)cc1-n1c(C)cc(OCc2ncc(F)cc2F)c(Cl)c1=O (single isomer, unassigned) [Example 5B, rel-3-chloro-2′-[2-(1,1-difluoro-2-methylpropan-2-yl)pyrimidin-4-yl]-4-[(3,5-difluoropyridin-2-yl)methoxy]-5′,6-dimethyl-[1,4′-bipyridin]-2-one] |  | > 316 |  | 2 |  |
| Cc1cnc(-c2ccnc([C@@](C)(O)C3CC3)n2)cc1-n1c(C)cc(OCc2ncc(F)cc2F)c(Cl)c1=O (single isomer, unassigned) [Example 6A, rel-3-chloro-2′-[2-(1-cyclopropyl-1-hydroxyethyl)pyrimidin-4-yl]-4-[(3,5-difluoropyridin-2-yl)methoxy]-5′,6-dimethyl-[1,4′-bipyridin]-2-one] |  | 10 |  | 0.0251 |  |
| Cc1cnc(-c2ccnc([C@](C)(O)C3CC3)n2)cc1-n1c(C)cc(OCc2ncc(F)cc2F)c(Cl)c1=O (single isomer, unassigned) [Example 6B, rel-3-chloro-2′-[2-(1-cyclopropyl-1-hydroxyethyl)pyrimidin-4-yl]-4-[(3,5-difluoropyridin-2-yl)methoxy]-5′,6-dimethyl-[1,4′-bipyridin]-2-one] | 0.00501 | 10 |  |  |  |
| Cc1cnc(-c2ccnc([C@](C)(O)C3CC3)n2)cc1-n1c(C)cc(OCc2ncc(F)cc2F)c(Cl)c1=O (single isomer, unassigned) [Example 6C, rel-3-chloro-2′-[2-(1-cyclopropyl-1-hydroxyethyl)pyrimidin-4-yl]-4-[(3,5-difluoropyridin-2-yl)methoxy]-5′,6-dimethyl-[1,4′-bipyridin]-2-one] |  | > 316 |  | 3.16 |  |
| Cc1cnc(-c2ccnc([C@@](C)(O)C3CC3)n2)cc1-n1c(C)cc(OCc2ncc(F)cc2F)c(Cl)c1=O (single isomer, unassigned) [Example 6D, rel-3-chloro-2′-[2-(1-cyclopropyl-1-hydroxyethyl)pyrimidin-4-yl]-4-[(3,5-difluoropyridin-2-yl)methoxy]-5′,6-dimethyl-[1,4′-bipyridin]-2-one] |  | > 316 |  | 2.51 |  |
| Cc1cnc(-n2ccc(C(C)(C)O)n2)cc1-n1c(C)cc(OCc2ncc(F)cc2F)c(Cl)c1=O (single isomer, unassigned) [Example 9A, rel-3-chloro-4-((3,5-difluoropyridin-2-yl)methoxy)-2′-(3-(2-hydroxypropan-2-yl)-1H-pyrazol-1-yl)-5′,6-dimethyl-2H-[1,4′-bipyridin]-2-one] | 0.00398 | 3.16 |  |  |  |
| Cc1cnc(-c2ccc3c(n2)[C@H](O)CC3)cc1-n1c(C)cc(OCc2ncc(F)cc2F)c(Cl)c1=O (single isomer, unassigned) [Example 18A] |  | 25.1 |  | 0.158 |  |
| Cc1cnc(-c2ccc3c(n2)[C@@H](O)CC3)cc1-n1c(C)cc(OCc2ncc(F)cc2F)c(Cl)c1=O (single isomer, unassigned) [Example 18B] |  | > 316 |  | > 10 |  |
| Cc1cnc(-c2ccc3c(n2)[C@@H](O)CC3)cc1-n1c(C)cc(OCc2ncc(F)cc2F)c(Cl)c1=O (single isomer, unassigned) [Example 18C] |  |  | <5.0 |  | <3.5 |
| Cc1cnc(-c2ccc3c(n2)[C@H](O)CC3)cc1-n1c(C)cc(OCc2ncc(F)cc2F)c(Cl)c1=O (single isomer, unassigned) [Example 18D] |  | 3.16 |  | 0.0794 |  |
| Cc1cnc(-c2ccnc(C3(CO)CC3)n2)cc1-n1c(C)cc(OCc2ncc(F)cc2F)c(Cl)c1=O (single isomer, unassigned) [Example 21A, rel-3-chloro-4-((3,5-difluoropyridin-2-yl)methoxy)-2′-(2-(1-(hydroxymethyl)cyclopropyl)pyrimidin-4-yl)-5′,6-dimethyl-2H-[1,4′-bipyridin]-2-one] |  | > 316 |  | > 10 |  |
